The test system of the test is HCV pseudoparticles (genotype 1a HCV E1 and E2 envelope, H77C isolate). As to the kind of experiment: microbe, parasite or virus in culture. The test is classed as cell-based. The following applies: Hepatitis C virus.
[1] abbreviates: Huh-7, 48 h, read-out: Activity (EC50 class), HCV pseudoparticles, Huh7 cells, luciferase 2 days after infection, average of duplicates.
The mark [2] stands for this setting: Huh-7, 48 h, read-out: Activity (EC50 class), HCV pseudoparticle infection of Huh7 cells, luciferase 2 days after infection, EC50 expressed as class A/B.
Where [3] appears, read: Huh-7, read-out: Activity (EC50 class), HCV pseudoparticles (genotype 1a, H77C) in Huh7 cells, EC50 expressed as class A/B.
[4] abbreviates: Huh-7, 48 h, HCV pseudoparticle infection of Huh7 cells, luciferase 2 days after infection, average of duplicates.
[5] abbreviates: Huh-7, 48 h, HCV pseudoparticles (genotype 1a, H77C) in Huh7 cells, average of duplicate, luciferase 2 days after infection.

Like-named read-outs stand apart in the source and are kept apart here.

Consider `Cc1cccc2sc(NC(=O)C(=O)NCC(C)(C)CNC(=O)c3ccc(Nc4nc(NC5(c6ccc(Cl)cc6)CC5)nc(OCC(F)(F)F)n4)cc3)nc12` [Compound 3805], for which, under setting [1], the 50% effective concentration (EC50) (as a rule, the midpoint of the concentration-response curve) lay in the range of 0.01 to 10 nM.
Consider `CC(C)(Cc1ccc(F)cc1)NC(=O)C(=O)NCC(NC(=O)c1ccc(Nc2nc(NC3(c4ccc(Cl)cc4)CC3)nc(OCC(F)(F)F)n2)cc1)C(=O)O` (centres unmarked) [Compound 1408], for which the EC50 under setting [2] was in the range of 0.01 to 10 nM.
As for `Cc1ccc(NC(=O)C(=O)NCC(C)CNC(=O)c2ccc(Nc3nc(NC4(c5ccc(Cl)cc5)CC4)nc(OCC(F)(F)F)n3)cc2)cc1Cl` (centres unmarked) [Compound 3474], the half-maximal effective concentration (EC50) under setting [3] lay within 0.01 to 10 nM.
On the same count and under the same terms, for `CN(CCCN(C)C(=O)c1ccc(Nc2nc(NC3(c4ccc(Cl)cc4)CC3)nc(OCC(F)(F)F)n2)cc1)C(=O)C(=O)Nc1ccc(F)cc1F` [Compound 3426] the value was 0.01 to 10 nM.
In the case of `CC(=O)c1ccccc1NC(=O)C(=O)NCC(C)(C)CNC(=O)c1ccc(Nc2nc(NC3(c4ccc(Cl)cc4)CC3)nc(OCC(F)(F)F)n2)cc1` [Compound 3377], the EC50 under setting [3] fell in the range of 0.01 to 10 nM.
For the compound `CC(C)(CNC(=O)C(=O)Nc1ccccc1)CNC(=O)c1ccc(Nc2nc(NC3(c4ccc(Cl)cc4)CC3)nc(OCC(F)(F)F)n2)cc1` [Compound 1035, N1-(3-(4-(4-(1-(4-chlorophenyl)cyclopropylamino)-6-(2,2,2-trifluoroethoxy)-1,3,5-triazin-2-ylamino)benzamido)-2,2-dimethylpropyl)-N2-phenyloxalamide], the midpoint of the response under setting [4], the EC50, lay at 0.03 nM.
Consider `CN(C(=O)C(=O)NCC[C@H](NC(=O)c1ccc(Nc2nc(NC3(c4ccc(Cl)cc4)CC3)nc(OCC(F)(F)F)n2)cc1)C(=O)O)c1ccccc1` [Compound 1277], for which the EC50 under setting [2] lay within 0.01 to 10 nM.
Regarding `O=C(NC[C@H](NC(=O)c1ccc(Nc2nc(NC3(c4ccc(Cl)cc4)CC3)nc(OCC(F)(F)F)n2)cc1)C(=O)O)C(=O)NC1CCCCCC1` [Compound 1175], the EC50 under setting [2] lay within 0.01 to 10 nM.
Regarding `CC(F)Oc1ccc(NC(=O)C(=O)NC[C@H](NC(=O)c2ccc(Nc3nc(NC4(c5ccc(Cl)cc5)CC4)nc(OCC(F)(F)F)n3)cc2)C(=O)O)cc1` (some centres unmarked) [Compound 3298], the 50% effective concentration (EC50) under setting [3] was 0.01 to 10 nM.
As for `O=C(Nc1cc(F)cc(F)c1)C(=O)N1CCCC(CNC(=O)c2ccc(Nc3nc(NC4(c5ccc(Cl)cc5)CC4)nc(OCC(F)(F)F)n3)cc2)C1` (centres unmarked) [Compound 3485], the EC50 under setting [3] was 0.01 to 10 nM.
For the compound `Cc1ccc(NC(=O)C(=O)N(C)CCCN(C)C(=O)c2ccc(Nc3nc(NC4(c5ccc(Cl)cc5)CC4)nc(OCC(F)(F)F)n3)cc2)cc1` [Compound 3406], the EC50 runs as follows: under setting [5], 1.91 nM; under setting [3], 0.01 to 10 nM.
With `COC(=O)C(CNC(=O)C(=O)NC1CCC(O)CC1)NC(=O)c1ccc(Nc2nc(NC3(c4ccc(Cl)cc4)CC3)nc(OCC(F)(F)F)n2)cc1` (centres unmarked) [Compound 1048], the EC50 under setting [2] was 0.01 to 10 nM.
Turning to `CC(C)(CNC(=O)C(=O)Nc1ccncc1)CNC(=O)c1ccc(Nc2nc(NC3(c4ccc(Cl)cc4)CC3)nc(OCC(F)(F)F)n2)cc1` [Compound 3241], the 50% effective concentration (EC50) under setting [3] lay within 0.01 to 10 nM.
On to `COC(=O)[C@H](CCNC(=O)C(=O)Nc1ccc(OC2CCOCC2)cc1)NC(=O)c1ccc(Nc2nc(NC3(c4ccc(Cl)cc4)CC3)nc(OCC(F)(F)F)n2)cc1` [Compound 3325], for which the EC50 is 2.4 nM under setting [5] and 0.01 to 10 nM under setting [3].
Take `COC(=O)[C@H](CNC(=O)C(=O)Nc1ccnc(OC)c1)NC(=O)c1ccc(Nc2nc(NC3(c4ccc(Cl)cc4)CC3)nc(OCC(F)(F)F)n2)cc1` [Compound 1241]: the 50% effective concentration (EC50) is, setting by setting: under setting [4], 0.99 nM; under setting [2], 0.01 to 10 nM.
With `COC(=O)[C@H](CCNC(=O)C(=O)Nc1ccc(OC(F)(F)F)cc1)NC(=O)c1ccc(Nc2nc(NC3(c4ccc(Cl)cc4)CC3)nc(OCC(F)(F)F)n2)cc1` [Compound 3331], the 50% effective concentration (EC50) under setting [3] lay within 0.01 to 10 nM.
Regarding `Cn1cncc1NC(=O)C(=O)NCC[C@H](NC(=O)c1ccc(Nc2nc(NC3(c4ccc(Cl)cc4)CC3)nc(OCC(F)(F)F)n2)cc1)C(=O)O` [Compound 1267], the concentration giving a half-maximal response (EC50) runs as follows: under setting [4], 5.26 nM; under setting [2], 0.01 to 10 nM.
For `COC(=O)[C@H](CCNC(=O)C(=O)NCc1cccc(OC)c1)NC(=O)c1ccc(Nc2nc(NC3(c4ccc(Cl)cc4)CC3)nc(OCC(F)(F)F)n2)cc1` [Compound 1156], under setting [2], the concentration giving a half-maximal response (EC50) is 0.01 to 10 nM.
On to `O=C(NC[C@H](NC(=O)c1ccc(Nc2nc(NC3(c4ccc(Cl)cc4)CC3)nc(OCC(F)(F)F)n2)cc1)C(=O)Cl)C(=O)Nc1cccc(-n2cnnc2)c1` [Compound 3784], for which, under setting [1], the concentration for a half-maximal effect (EC50) is 0.01 to 10 nM.
`CN(CCCN(C)C(=O)c1ccc(Nc2nc(NC3(c4ccc(Cl)cc4)CC3)nc(OCC(F)(F)F)n2)cc1)C(=O)C(=O)NCc1ccc(F)cc1` [Compound 3413]: the EC50 under setting [3] is 10 to 1000 nM.
`O=C(NC[C@H](NC(=O)c1ccc(Nc2nc(NC3(c4ccc(Cl)cc4)CC3)nc(OCC(F)(F)F)n2)cc1)C(=O)O)C(=O)Nc1ccc(OC2CCOCC2)cc1` [Compound 3291]: the concentration for a half-maximal effect (EC50) under setting [3] lay within 0.01 to 10 nM.
Still for that read-out and setting: for `CC(C)(CNC(=O)C(=O)Nc1cccc2c1Cc1ccccc1-2)CNC(=O)c1ccc(Nc2nc(NC3(c4ccc(Cl)cc4)CC3)nc(OCC(F)(F)F)n2)cc1` [Compound 3356] the value was 0.01 to 10 nM.
In the case of `COC(=O)[C@H](CCNC(=O)C(=O)NCC1CCCCCC1)NC(=O)c1ccc(Nc2nc(NC3(c4ccc(Cl)cc4)CC3)nc(OCC(F)(F)F)n2)cc1` [Compound 1197], the half-maximal effective concentration (EC50) under setting [2] was 0.01 to 10 nM.
On the same count and under the same terms, in the case of `COC(=O)[C@H](CNC(=O)C(=O)NC1(Cc2ccccc2)CC1)NC(=O)c1ccc(Nc2nc(NC3(c4ccc(Cl)cc4)CC3)nc(OCC(F)(F)F)n2)cc1` [Compound 1304] it was 0.01 to 10 nM.
Regarding `CC(C)(CNC(=O)C(=O)Nc1ccccc1-n1ccnc1)CNC(=O)c1ccc(Nc2nc(NC3(c4ccc(Cl)cc4)CC3)nc(OCC(F)(F)F)n2)cc1` [Compound 3180], under setting [3], the half-maximal effective concentration (EC50) fell in the range of 0.01 to 10 nM.
With `COC(=O)[C@H](CNC(=O)C(=O)Nc1ccc(OC)cc1)NC(=O)c1ccc(Nc2nc(NC3(c4ccc(Cl)cc4)CC3)nc(OCC(F)(F)F)n2)cc1` [Compound 1254], the EC50 by setting is: under setting [4], 0.37 nM; under setting [2], 0.01 to 10 nM.
Take `COC(=O)[C@H](CNC(=O)C(=O)N[C@@H]1C[C@H]2C[C@@H]([C@H]1C)C2(C)C)NC(=O)c1ccc(Nc2nc(NC3(c4ccc(Cl)cc4)CC3)nc(OCC(F)(F)F)n2)cc1` [Compound 1069]: the EC50 under setting [2] fell in the range of 0.01 to 10 nM.
For `COC(=O)[C@@H](CCNC(=O)C(=O)Nc1cccc(C)c1)NC(=O)c1ccc(Nc2nc(NC3(c4ccc(Cl)cc4)CC3)nc(OCC(F)(F)F)n2)cc1` [Compound 3572], under setting [3], the 50% effective concentration (EC50) lay in the range of 0.01 to 10 nM.
Consider `COC(=O)[C@H](CNC(=O)C(=O)Nc1cccc(C(N)=O)c1)NC(=O)c1ccc(Nc2nc(NC3(c4ccc(Cl)cc4)CC3)nc(OCC(F)(F)F)n2)cc1` [Compound 3689], for which the EC50 under setting [1] lay within 0.01 to 10 nM.
`O=C(NCC[C@H](NC(=O)c1ccc(Nc2nc(NC3(c4ccc(Cl)cc4)CC3)nc(OCC(F)(F)F)n2)cc1)C(=O)O)C(=O)Nc1cccc(CN2CCCC2)c1` [Compound 3647]: under setting [1], the EC50 lay in the range of 0.01 to 10 nM.
For the compound `COC(=O)[C@H](CCNC(=O)C(=O)Nc1ccc(Oc2ccc(F)cc2)cc1)NC(=O)c1ccc(Nc2nc(NC3(c4ccc(Cl)cc4)CC3)nc(OCC(F)(F)F)n2)cc1` [Compound 3301], under setting [3], the EC50 was in the range of 0.01 to 10 nM.
Regarding `CCc1ccnn1CC1(CNC(=O)C(=O)NCC[C@H](NC(=O)c2ccc(Nc3nc(NC4(c5ccc(Cl)cc5)CC4)nc(OCC(F)(F)F)n3)cc2)C(=O)O)CC1` [Compound 1430], the EC50 under setting [2] was in the range of 0.01 to 10 nM.
`COC(=O)[C@H](CCNC(=O)C(=O)Nc1cccc(-c2c[nH]cn2)c1)NC(=O)c1ccc(Nc2nc(NC3(c4ccc(Cl)cc4)CC3)nc(OCC(F)(F)F)n2)cc1` [Compound 3608]: under setting [1], the concentration giving a half-maximal response (EC50) lay in the range of 0.01 to 10 nM.

Source of the values: patent US8916702B2 (priority 2012, dated 2014).
